Assay results published in EP4094756A1 (priority 2021, dated 2022).

System: SARS-CoV-2 VOC (Alpha, Beta, and Delta)
Test: SARS-CoV2 VOC testing in Vero cells, standard plaque assay
Assay type: cell-based

With `Cc1cc(O)c2c(=O)c3c(O)cc(O)c4c5c(O)cc(O)c6c(=O)c7c(O)cc(C)c8c1c2c(c34)c(c78)c65` [Hypericin, hypericin] the “drop of virus titers in comparison to DMSO-treated controls” value was 3-5 log steps.
